Columns and labels:
[1] = target: T1, PI3Kα (Homo sapiens, UniProt P42336); test: PI3-Kinase HTRF assay, PI3Kα; type: biochemical; details: bins Greater than 10 μM and Greater than 1 μM to 10 μM; 10 μM ATP, PIP2 at 10 μM; read-out: IC50 P13Kα
T1 construct: purchased Millipore Corporation 14-602-K
Source text: (§1) A PI3-Kinase HTRF® assay kit (cat No. 33-016) purchased from Millipore Corporation was used to screen compounds provided herein. This assay used specific, high affinity binding of the GRPI pleckstrin homology (PH) domain to PIP3, the product of a Class 1A or 1B PI3 Kinase acting on its physiological substrate PIP2. During the detection phase of the assay, a complex was generated between the GST-tagged PH domain and biotinylated short chain PIP3. The biotinylated PIP3 and the GST-tagged PH domain recruited fluorophores (Streptavidin-Allophycocyanin and Europium-labeled anti-GST respectively) to form the fluorescence resonance energy transfer (FRET) architecture, generating a stable time-resolved FRET signal. The FRET complex was disrupted in a competitive manner by non-biotinylated PIP3, a product formed in the PI3 Kinase assay.
(§2) PI3 Kinase α, β, γ and δ activity was assayed using the PI3 Kinase HTRF® assay kit (catalogue No. 33-016) purchased from Millipore Corporation. Purified recombinant PI3Kα (catalogue No. 14-602-K), PI3Kβ (catalogue No. 14-603-K), PI3Kγ (catalogue No. 14-558-K) and PI3Kδ (catalogue No. 14-604-K) were obtained from Millipore Corporation. Purified recombinant PI3K enzyme was used to catalyze the phosphorylation of phosphatidylinositol 4,5-bisphosphate (PIP2 at 10 μM) to phosphatidylinositol 3,4,5-trisphosphate (PIP3) in the presence of 10 μM ATP. The assay was carried out in 384-well format and detected using a Perkin Elmer EnVision Xcite Multilabel Reader. Emission ratios were converted into percent inhibitions and imported into GraphPad Prism software. The concentration necessary to achieve inhibition of enzyme activity by 50% (IC50) was calculated using concentrations ranging from 20 μM to 0.1 nM (12-point curve). IC50 values were determined using a nonlinear regression model available in GraphPad Prism 5. […]

[2] = target: T2, PI3Kβ (Homo sapiens, UniProt P42338); test: PI3-Kinase HTRF assay, PI3Kβ; type: biochemical; details: bins Greater than 10 μM and Greater than 1 μM to 10 μM; 10 μM ATP, PIP2 at 10 μM
T2 construct: purchased Millipore Corporation 14-603-K
Source text: as §1, §2

[3] = tested on: Balb/c splenic B cells; test: B cell activation and proliferation assay; type: cell-based; details: Mus musculus, column bins 1 μM to 100 nM (given as 100-1000) and Less than 100 nM, read-out: B cell proliferation EC50
Description: The ability of one or more subject compounds to inhibit B cell activation and proliferation is determined according to standard procedures known in the art. For example, an in vitro cellular proliferation assay is established that measures the metabolic activity of live cells. The assay is performed in a 96 well microtiter plate using Alamar Blue reduction. Balb/c splenic B cells are purified over a Ficoll-Paque™ PLUS gradient followed by magnetic cell separation using a MACS B cell Isolation Kit (Miletenyi). Cells are plated in 90 μl at 50.000 cells/well in B Cell Media (RPMI+10% FBS+Penn/Strep+50 μME5 mM HEPES). A compound provided herein is diluted in B Cell Media and added in a 10 μl volume. Plates are incubated for 30 min at 37° C. and 5% CO2 (0.2% DMSO final concentration). A 50 μl B cell stimulation cocktail is then added containing either 10 μg/ml LPS or 5 μg/ml F(ab′)2 Donkey anti-mouse IgM plus 2 ng/ml recombinant mouse IL4 in B Cell Media. Plates are incubated for 72 hours at 37° C. and 5% CO2. A volume of 15 μL of Alamar Blue reagent is added to each well and plates are incubated for 5 hours at 37° C. and 5% CO2. Alamar Blue fluoresce is read at 560Ex/590Em, and IC50 or EC50 values are calculated using GraphPad Prism 5.

T1 sequence (P42336 whole entry): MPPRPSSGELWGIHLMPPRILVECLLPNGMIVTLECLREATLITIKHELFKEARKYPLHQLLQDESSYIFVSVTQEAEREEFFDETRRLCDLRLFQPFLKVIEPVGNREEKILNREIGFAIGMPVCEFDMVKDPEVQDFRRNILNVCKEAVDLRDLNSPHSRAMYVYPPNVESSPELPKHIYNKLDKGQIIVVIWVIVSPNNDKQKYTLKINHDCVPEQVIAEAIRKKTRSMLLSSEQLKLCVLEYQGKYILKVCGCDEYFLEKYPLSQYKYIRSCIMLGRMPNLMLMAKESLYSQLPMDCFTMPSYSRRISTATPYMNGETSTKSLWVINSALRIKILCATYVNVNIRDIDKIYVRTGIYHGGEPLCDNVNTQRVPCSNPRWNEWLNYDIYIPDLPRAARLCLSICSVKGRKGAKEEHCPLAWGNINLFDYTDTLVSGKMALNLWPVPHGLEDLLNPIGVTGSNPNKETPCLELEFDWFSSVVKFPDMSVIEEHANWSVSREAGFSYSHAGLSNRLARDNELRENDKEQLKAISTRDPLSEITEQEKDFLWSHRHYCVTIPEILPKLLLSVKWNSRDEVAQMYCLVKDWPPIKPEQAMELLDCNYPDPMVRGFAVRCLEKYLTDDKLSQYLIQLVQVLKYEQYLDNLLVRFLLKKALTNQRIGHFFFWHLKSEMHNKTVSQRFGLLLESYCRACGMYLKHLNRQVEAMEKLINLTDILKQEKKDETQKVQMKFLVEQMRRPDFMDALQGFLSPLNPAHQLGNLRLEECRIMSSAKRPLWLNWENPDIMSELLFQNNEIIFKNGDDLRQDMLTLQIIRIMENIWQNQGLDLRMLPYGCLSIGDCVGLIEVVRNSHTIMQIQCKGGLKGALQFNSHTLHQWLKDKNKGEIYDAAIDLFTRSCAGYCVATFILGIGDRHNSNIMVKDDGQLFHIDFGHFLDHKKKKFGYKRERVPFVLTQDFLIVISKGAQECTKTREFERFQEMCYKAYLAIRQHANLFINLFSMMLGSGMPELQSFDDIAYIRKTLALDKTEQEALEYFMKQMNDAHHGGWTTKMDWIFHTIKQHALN
T1 sequence (P27986 whole entry partner): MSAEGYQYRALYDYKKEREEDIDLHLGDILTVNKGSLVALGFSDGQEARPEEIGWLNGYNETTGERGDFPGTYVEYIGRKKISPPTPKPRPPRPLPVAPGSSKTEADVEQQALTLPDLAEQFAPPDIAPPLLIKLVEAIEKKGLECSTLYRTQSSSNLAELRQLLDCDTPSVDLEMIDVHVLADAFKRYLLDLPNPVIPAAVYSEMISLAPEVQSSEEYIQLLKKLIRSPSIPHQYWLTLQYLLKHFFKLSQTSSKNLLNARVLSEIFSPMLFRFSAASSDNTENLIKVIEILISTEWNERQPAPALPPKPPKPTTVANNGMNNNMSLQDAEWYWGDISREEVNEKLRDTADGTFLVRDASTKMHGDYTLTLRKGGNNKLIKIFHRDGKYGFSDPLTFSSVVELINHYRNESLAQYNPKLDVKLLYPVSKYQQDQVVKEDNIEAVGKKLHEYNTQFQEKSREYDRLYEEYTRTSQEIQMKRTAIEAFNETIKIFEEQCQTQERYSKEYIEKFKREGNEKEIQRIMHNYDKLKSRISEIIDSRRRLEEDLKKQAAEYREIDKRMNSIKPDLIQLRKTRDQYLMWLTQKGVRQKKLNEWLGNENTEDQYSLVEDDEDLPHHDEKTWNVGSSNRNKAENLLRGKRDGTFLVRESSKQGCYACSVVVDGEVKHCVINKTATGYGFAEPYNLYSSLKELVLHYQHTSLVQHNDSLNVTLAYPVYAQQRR
T2 sequence (P42338 whole entry): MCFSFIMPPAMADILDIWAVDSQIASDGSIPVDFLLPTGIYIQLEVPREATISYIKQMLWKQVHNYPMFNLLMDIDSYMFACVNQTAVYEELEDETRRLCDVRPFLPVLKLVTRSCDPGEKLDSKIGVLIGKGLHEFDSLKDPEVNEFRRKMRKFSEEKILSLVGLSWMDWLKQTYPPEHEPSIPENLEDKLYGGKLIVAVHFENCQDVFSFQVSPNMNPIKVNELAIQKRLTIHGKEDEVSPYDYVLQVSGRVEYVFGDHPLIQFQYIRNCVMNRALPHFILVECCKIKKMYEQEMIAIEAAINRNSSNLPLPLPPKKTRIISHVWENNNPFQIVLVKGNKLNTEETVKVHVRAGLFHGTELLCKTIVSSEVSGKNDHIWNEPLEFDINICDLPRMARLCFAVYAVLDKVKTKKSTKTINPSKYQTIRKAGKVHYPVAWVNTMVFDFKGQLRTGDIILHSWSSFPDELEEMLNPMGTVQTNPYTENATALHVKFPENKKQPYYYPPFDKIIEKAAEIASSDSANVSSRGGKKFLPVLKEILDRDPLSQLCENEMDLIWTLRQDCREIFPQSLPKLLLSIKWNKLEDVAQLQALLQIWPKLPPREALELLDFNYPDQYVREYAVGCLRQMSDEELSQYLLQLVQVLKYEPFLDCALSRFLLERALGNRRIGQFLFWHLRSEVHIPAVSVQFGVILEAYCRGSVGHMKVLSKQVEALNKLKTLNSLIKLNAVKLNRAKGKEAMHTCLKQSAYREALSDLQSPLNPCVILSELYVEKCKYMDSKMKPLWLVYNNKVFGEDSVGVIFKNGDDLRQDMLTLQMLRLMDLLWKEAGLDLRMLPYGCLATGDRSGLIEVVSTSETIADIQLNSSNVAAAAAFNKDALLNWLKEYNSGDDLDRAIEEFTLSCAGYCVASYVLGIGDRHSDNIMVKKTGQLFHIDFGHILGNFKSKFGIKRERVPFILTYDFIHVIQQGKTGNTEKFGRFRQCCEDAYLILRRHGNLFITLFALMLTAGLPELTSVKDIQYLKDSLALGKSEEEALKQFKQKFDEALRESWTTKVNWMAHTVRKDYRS
T2 sequence (P27986 whole entry partner): as the sequence (P27986 whole entry partner) above

Question: What does the source list for `C[C@H](Nc1nc(N)ncc1C#N)c1cc2cccc(-c3ccc(NS(C)(=O)=O)cc3)c2c(=O)n1-c1ccccc1` [Compound 167]?
Answer: IC50 [1]: 1000 to 10000 nM; IC50 [2]: 1000 to 10000 nM; EC50 [3]: < 100 nM

Question: What does the source list for `C[C@H](Nc1nc(N)ncc1C#N)c1cc2cccc(-c3ccnc(N)c3)c2c(=O)n1-c1ccccc1` [Compound 187]?
Answer: IC50 [1]: 1000 to 10000 nM; IC50 [2]: 1000 to 10000 nM; EC50 [3]: < 100 nM

Question: `Cc1ncc(-c2cccc3cc([C@H](C)Nc4nc(N)ncc4C#N)n(-c4ccccc4)c(=O)c23)s1` [Compound 68] was tested. Which IC50 [1] did it give?
Answer: The IC50 was 1000 to 10000 nM.

Question: What about the IC50 [2] of the same molecule?
Answer: Its IC50 is 1000 to 10000 nM.

Question: Which results are given for `COc1ncc(-c2cccc3cc([C@H](C)Nc4nc(N)ncc4C#N)n(C4CC4)c(=O)c23)cn1` [Compound 105]?
Answer: IC50 [1]: 1000 to 10000 nM; IC50 [2]: 1000 to 10000 nM; EC50 [3]: < 100 nM

Question: For `C[C@H](Nc1nc(N)ncc1-c1nccs1)c1cc2cccc(Cl)c2c(=O)n1-c1ccccc1` [Compound 224], which IC50 [1] is on record?
Answer: The IC50 was 1000 to 10000 nM.

Question: And the IC50 [2]?
Answer: The IC50 was 1000 to 10000 nM.

Question: What about the EC50 [3] of the same molecule?
Answer: The EC50 was < 100 nM.

Question: With `C[C@H](Nc1nc(N)ncc1C#N)c1cc2cccc(-c3ccc(=O)n(C4CCCC4)c3)c2c(=O)n1-c1ccccc1` [Compound 233] as the molecule, how does the IC50 [2] read?
Answer: The IC50 was 1000 to 10000 nM.

Question: What about the EC50 [3] of the same molecule?
Answer: The EC50 was < 100 nM.

Question: How did the IC50 [2] turn out when `COc1cccc(-c2cccc3cc([C@H](C)Nc4nc(N)ncc4C#N)n(-c4ccccc4)c(=O)c23)n1` [Compound 166] was run?
Answer: Its IC50 is 1000 to 10000 nM.

Question: What about the EC50 [3] of the same molecule?
Answer: Its EC50 is < 100 nM.

Question: How did the IC50 [1] turn out when `COc1ncc(-c2cccc3cc([C@H](C)Nc4nc(N)ncc4C#N)n(-c4ccccc4)c(=O)c23)s1` [Compound 70] was run?
Answer: The IC50 was 1000 to 10000 nM.

Question: What about the IC50 [2] of the same molecule?
Answer: Its IC50 is 1000 to 10000 nM.

Question: How did the IC50 [2] turn out when `Cc1ccc(-n2c([C@H](C)Nc3nc(N)ncc3C#N)cc3cccc(Cl)c3c2=O)cc1` [Compound 252] was run?
Answer: Its IC50 is 1000 to 10000 nM.

Question: What about the EC50 [3] of the same molecule?
Answer: Its EC50 is 100 to 1000 nM.

Question: Which IC50 [2] does the source give for `C[C@H](Nc1nc(N)ncc1C#N)c1cc2cccc(-c3cnc4ccccc4c3)c2c(=O)n1-c1cccc(F)c1` [Compound 23] here?
Answer: The IC50 was 1000 to 10000 nM.

Question: And the EC50 [3]?
Answer: The EC50 was < 100 nM.

Question: For `COc1ccc(-c2cccc3cc([C@H](C)Nc4nc(N)ncc4C#N)n(-c4ccccc4)c(=O)c23)cn1` [Compound 35], which IC50 [1] is on record?
Answer: Its IC50 is 1000 to 10000 nM.

Question: What about the IC50 [2] of the same molecule?
Answer: The IC50 was 1000 to 10000 nM.

Question: How did the IC50 [2] turn out when `Cc1cccc2cc([C@H](C)Nc3nc(N)ncc3C(F)(F)F)n(-c3cccc(F)c3)c(=O)c12` [Compound 16] was run?
Answer: The IC50 was 1000 to 10000 nM.

Question: What about the EC50 [3] of the same molecule?
Answer: The EC50 was < 100 nM.

Question: With `COc1ccc(-c2cccc3cc([C@H](C)Nc4nc(N)ncc4C#N)n(-c4ccccc4)c(=O)c23)cc1` [Compound 38] as the molecule, how does the IC50 [1] read?
Answer: The IC50 was 1000 to 10000 nM.

Question: What about the IC50 [2] of the same molecule?
Answer: The IC50 was 1000 to 10000 nM.

Question: Which IC50 [2] does the source give for `C[C@H](Nc1nc(N)ncc1-c1cccs1)c1cc2cccc(Cl)c2c(=O)n1-c1ccccc1` [Compound 367] here?
Answer: Its IC50 is 1000 to 10000 nM.

Question: What about the EC50 [3] of the same molecule?
Answer: The EC50 was < 100 nM.

Question: With `COc1cc(-c2cccc3cc([C@H](C)Nc4nc(N)ncc4C#N)n(-c4ccccc4)c(=O)c23)cnc1C` [Compound 100] as the molecule, how does the IC50 [2] read?
Answer: Its IC50 is 1000 to 10000 nM.

Question: And the EC50 [3]?
Answer: Its EC50 is < 100 nM.

Question: `C[C@H](Nc1nc(N)ncc1C#N)c1cc2cccc(-c3ccnnc3)c2c(=O)n1-c1cccc(F)c1` [Compound 30] was tested. Which IC50 [2] did it give?
Answer: Its IC50 is 1000 to 10000 nM.

Question: What about the EC50 [3] of the same molecule?
Answer: Its EC50 is < 100 nM.

Question: `C[C@H](Nc1nc(N)ncc1C#N)c1cc2cccc(Cl)c2c(=O)n1CC(C)(C)C` [Compound 246] was tested. Which IC50 [2] did it give?
Answer: Its IC50 is 1000 to 10000 nM.

Question: What about the EC50 [3] of the same molecule?
Answer: The EC50 was 100 to 1000 nM.

Question: How did the IC50 [2] turn out when `COc1cncc(-c2cccc3cc([C@H](C)Nc4nc(N)ncc4C(N)=O)n(-c4ccccc4)c(=O)c23)c1` [Compound 10, 2-amino-4-((S)-1-(8-(5-methoxypyridin-3-yl)-1-oxo-2-phenyl-1,2-dihydroisoquinolin-3-yl)ethylamino)pyrimidine-5-carboxamide] was run?
Answer: Its IC50 is 1000 to 10000 nM.

Question: What about the EC50 [3] of the same molecule?
Answer: Its EC50 is < 100 nM.

Question: Which IC50 [2] does the source give for `COc1cncc(-c2cccc3cc([C@H](C)Nc4nc(N)ncc4C#N)n(-c4cccc(F)c4)c(=O)c23)c1` [Compound 27] here?
Answer: Its IC50 is 1000 to 10000 nM.

Question: What about the EC50 [3] of the same molecule?
Answer: The EC50 was < 100 nM.

Question: For `C[C@H](Nc1nc(N)ncc1C#N)c1cc2cccc(-c3ccc(Cl)cc3)c2c(=O)n1-c1ccccc1` [Compound 32], which IC50 [1] is on record?
Answer: Its IC50 is 1000 to 10000 nM.

Question: And the IC50 [2]?
Answer: The IC50 was 1000 to 10000 nM.

Question: What does the source list for `C[C@H](Nc1nc(N)ncc1C#N)c1cc2cccc(CC#N)c2c(=O)n1-c1ccccc1` [Compound 124]?
Answer: IC50 [2]: 1000 to 10000 nM; EC50 [3]: < 100 nM

Source: patent publication US8785470B2, “Heterocyclic compounds and uses thereof” (Infinity Pharmaceuticals, Inc., priority 2011, dated 2014)
